The values that follow come from patent US8455528B2, “Imidazole derivatives useful as inhibitors of FAAH” (Merck Sharp & Dohme Corp., priority 2008, dated 2013).

The IC50 is the concentration that inhibits the measured activity by half.

Each structure is given as a SMILES string.

The first assay has as its target T1, Human FAAH (Homo sapiens, UniProt O00519).
T1 construct: The full length FAAH was subcloned into the mammalian expression vector, pcDEF.neo; expressed in transfected cells
T1 sequence (O00519 1-579): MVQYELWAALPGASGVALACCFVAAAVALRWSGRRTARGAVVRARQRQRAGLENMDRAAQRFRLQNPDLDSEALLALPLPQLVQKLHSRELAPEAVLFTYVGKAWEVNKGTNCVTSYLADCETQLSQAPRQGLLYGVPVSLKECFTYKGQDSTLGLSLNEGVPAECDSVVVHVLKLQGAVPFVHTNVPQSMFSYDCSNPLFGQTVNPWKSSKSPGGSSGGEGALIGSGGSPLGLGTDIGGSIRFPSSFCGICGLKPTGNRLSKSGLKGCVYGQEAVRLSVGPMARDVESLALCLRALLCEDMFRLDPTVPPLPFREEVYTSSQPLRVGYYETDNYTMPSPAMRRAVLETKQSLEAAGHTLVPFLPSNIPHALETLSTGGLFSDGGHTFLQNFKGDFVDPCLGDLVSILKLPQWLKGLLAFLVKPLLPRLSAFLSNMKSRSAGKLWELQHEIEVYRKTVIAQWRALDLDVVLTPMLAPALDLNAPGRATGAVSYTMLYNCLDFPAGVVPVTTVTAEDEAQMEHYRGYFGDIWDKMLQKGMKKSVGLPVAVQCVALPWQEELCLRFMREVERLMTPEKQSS
The assay is described as follows: Human FAAH lysate assay (CHO cell lysate, AAMCA fluorescent substrate). The settings on record: human FAAH lysate; read-out: Human FAAH lysate assay: IC50. Type of assay: biochemical. An excerpt: To assist in assay development stable cell lines for human, murine and rat full length FAAH were developed. Human FAAH cDNA (Accession No: NM-001441.1) was purchased from Origene (Rockville, Md.). The full length FAAH was subcloned into the mammalian expression vector, pcDEF.neo, using XbaI and EcoRI restriction sites and used for stable cell line generation. CHO cells expressing FAAH were used to prepare either crude cell lysate or microsome fractions. To harvest cells, tissue culture media was decanted, the monolayer washed three times with Ca^++Mg^++ free PBS and cells recovered after 15 min in enzyme free dissociation media (Millipore Corp, Billerica, Mass.). Cells were collected by centrifuging at 2000 rpm for 15 min. and the cell pellet re-suspended with 50 mM HEPES (pH 7.4) containing 1 mM EDTA and the protease inhibitors aprotinin (1 mg/ml) and leupeptin (100 μM). […] The pellet containing FAAH-enriched microsomes was re-suspend in 50 mM HEPES, (pH 7,4) 1 mM EDTA, and any remaining DNA sheared by passage of material through a 23 gauge needle and aliquots of enzyme were store at -80° C. prior to use. […] (American Radiolabeled Chemicals; 1 mCi/ml) with FAAH (Life Sciences (1995), 56, 1999-2005 and Journal of Pharmacology and Experimented Therapeutics (1997), 283, 729-734), Analytical. Biochemistry (2003), 318, 270-5. […] Analytical. Biochemistry (2005). 343, 143-51 […] Fluorescent release as a measure of FAAH activity was monitored by reading the plate in a CytoFluor Multiplate Reader ([…]). Whole cell assay is conducted with cells harvested after rinsing tissue culture flasks three times with Ca^++Mg^++ free PBS, incubating for 10 min in Enzyme free dissociation media and centrifuging for 5 minutes at 1,000 rpm in table top centrifuge. Cells are resuspended in assay buffer at desired cell number in (4×10^4 cells/assay in 96-well format; 1×10^4 cells/assay in 384-well format) and assayed as described. […] The reaction was terminated by addition of 2 volumes of chloroform:methanol (1:1) and mixed by vortexing. […] K., et al. A fluorescence-based assay for fatty acid amide hydrolase compatible with high-throughput screening. Anal. Biochem. 343:143-51 (2005) • Wilson S. J., et l. A high-throughput-compatible assay for determining the activity of fatty acid amide hydrolase. Anal Biochem. 318:270-5 (2003).
On to `Cn1c(-c2cccs2)nc(-c2ccc(S(C)(=O)=O)cc2)c1Sc1ccc(Cl)cc1` [Example 137, 5-[(4-chlorophenyl)sulfanyl]-1-methyl-4-[4-(methylsulfonyl)phenyl]-2-(thiophen-2-yl)-1H-imidazole], for which the half-maximal inhibitory concentration (IC50) was determined as 16.5 nM.
Take `CCn1ccc(-c2nc(-c3ccc(-c4ncon4)cc3)c(Sc3ccc(Cl)cc3)n2C)n1` [Example 140, 3-4-({5-[(4-chlorophenyl)sulfanyl]-2-(1-ethyl-1H-pyrazol-3-yl)-1-methyl-1H-imidazol-4-yl)phenyl)-1,2,4-oxadiazole]: the IC50 came to 28.7 nM.
With `CCn1nccc1-c1nc(-c2ccc(-c3ncon3)cc2)c(Sc2ccc(Cl)cc2)n1C` [Example 141, 3-(4-{5-[(4-chlorophenyl)sulfanyl]-2-(1-ethyl-1H-pyrazol-5-yl)-1-methyl-1H-imidazol-4-yl}phenyl)-1,2,4-oxadiazole], the concentration for half-maximal inhibition (IC50) was determined as 67.9 nM.
Consider `CC(C)n1ccc(-c2nc(-c3ccc(-c4ncon4)cc3)c(Sc3ccc(Cl)cc3)n2C)n1` [Example 142, 3-(4-{5-[(4-chlorophenyl)sulfanyl]-1-methyl-2-[1-(propan-2-yl)-1H-pyrazol-3-yl]-1H-imidazol-4-yl}phenyl)-1,2,4-oxadiazole], for which the IC50 stood at 15.6 nM.
With `Cn1ccc(-c2nc(-c3ccc(-c4ncon4)cc3)c(Sc3ccc(Cl)cc3)n2C)n1` [Example 143, 3-(4-{5-[(4-chlorophenyl)sulfanyl]-1-methyl-2-(1-methyl-1H-pyrazol-3-yl)-1H-imidazol-4-yl}phenyl)-1,2,4-oxadiazole], the IC50 was found to be 11.7 nM.
As to `Cn1c(-c2ccn(C3CC3)n2)nc(-c2ccc(-c3ncon3)cc2)c1Sc1ccc(Cl)cc1` [Example 144, 3-(4-{5-[(4-chlorophenyl)sulfanyl]-2-(1-cyclopropyl-1H-pyrazol-3-yl)-1-methyl-1H-imidazol-4-yl}phenyl)-1,2,4-oxadiazole], the IC50 came out at 7.4 nM.
Turning to `Cn1c(-c2ccn(CC(C)(C)O)n2)nc(-c2ccc(C#N)cc2)c1Sc1ccc(Cl)cc1` [Example 145, 4-{5-[(4-chlorophenyl)sulfanyl]-2-[1-(2-hydroxy-2-methylpropyl)-1H-pyrazol-3-yl]-1-methyl-1H-imidazol-4-yl}benzonitrile], the IC50 came out at 23.1 nM.
For the compound `Cn1c(C(C)(C)O)nc(-c2ccc(-c3ncon3)cc2)c1Sc1ccc(Cl)cc1` [Example 146, 2-{5-[(4-chlorophenyl)sulfanyl]-1-methyl-4-[4-(1,2,4-oxadiazol-3-yl)phenyl]-1H-imidazol-2-yl}propan-2-ol], the IC50 amounted to 208 nM.
In the case of `CCOC(C)(C)c1nc(-c2ccc(-c3ncon3)cc2)c(Sc2ccc(Cl)cc2)n1C` [Example 147, 3-(4-{5-[(4-chlorophenyl)sulfanyl]-2-(2-ethoxypropan-2-yl)-1-methyl-1H-imidazol-4-yl}phenyl)-1,2,4-oxadiazole], the IC50 amounted to 24.4 nM.
Same read-out and setting: the same measure for `Cn1c(-c2cc(C3CC3)on2)nc(-c2ccc(C(C)(C)O)nc2)c1Sc1ccc(Cl)cn1` [Example 148, 2-(5-{5-[(5-chloropyridin-2-yl)sulfanyl]-2-(5-cyclopropylisoxazol-3-yl)-1-methyl-1H-imidazol-4-yl}pyridin-2-yl)propan-2-ol]: 91 nM.

Still in this assay, the particulars now being: human FAAH lysate; read-out: hFAAH lysate IC50.
Take `Cn1c(-c2nccs2)nc(-c2ccc(S(C)(=O)=O)cc2)c1Sc1ccc(Cl)cc1` [Example 138]: the IC50 came to 24.8 nM.
For the compound `Cn1c(-c2ncco2)nc(-c2ccc(S(C)(=O)=O)cc2)c1Sc1ccc(Cl)cc1` [Example 139], the half-maximal inhibitory concentration (IC50) came out at 21.2 nM.
